Compound `Oc1cccc(OCC(O)CNCc2ccc3c(c2)OCO3)c1` (stereo not shown) [Compound 1e, N-((1,3-Benzodioxol-5-yl)methyl)-2-hydroxy-3-(3-hydroxyphenoxy)propylamine] registered a melting point of 230 to 231 °C.

Values taken from patent US6890955B2, “Aryloxypropanolamine derivatives, method of preparation and applications thereof” (Virbac SA, priority 1996, dated 2005).
